Drawing on ChEMBL document CHEMBL5053516, “Cinchona Alkaloid-Inspired Urea-Containing Autophagy Inhibitor Shows Single-Agent Anticancer Efficacy” (J Med Chem, 2021), this text covers IC50, inhibition and Activity for twelve molecules.

Experiment [1] has as its system Mahlavu. Put plainly: Cytotoxicity against human Mahlavu cells assessed as cell viability by MTT assay. It is filed as functional, cell-based.
The subject of experiment [2] is HepG2. As to the kind of experiment: Cytotoxicity against human HepG2 cells assessed as cell viability by MTT assay. It is filed as functional, cell-based.
For experiment [3], the system named is Hep 3B2. Put plainly: Cytotoxicity against human Hep3B cells assessed as cell viability by MTT assay. The format is functional, cell-based.
Experiment [4] is described as follows: Cytotoxicity against mouse FL83B cells assessed as cell viability by MTT assay. The format is cell-based.
The nature of experiment [5]: Cytotoxicity against human JHH7 cells assessed as cell viability by MTT assay. It is filed as functional, cell-based.
Experiment [6] can be described thus: Cytotoxicity against mouse HCA1 cells assessed as cell viability by MTT assay. It is filed as functional, cell-based.
The target of experiment [7] is Serine/threonine-protein kinase AKT (Homo sapiens) (UniProt P31751+Q9Y243+P31749). As to the kind of experiment: Inhibition of Akt phosphorylation in human Hep3B cells by Western blot analysis. It is filed as cell-based.
Experiment [8] has as its system Mahlavu. As to the kind of experiment: Induction of apoptosis in human Mahlavu cells after 16 hrs using annexin V/PI staining assay. It is filed as functional, cell-based.
Experiment [9] has as its system Mahlavu. As to the kind of experiment: Inhibition of autophagosome-lysosome fusion in human Mahlavu cells assessed as number of LC3 puncta at 1 uM for 2 hrs by immunofluorescence assay. It is filed as functional, cell-based.
Experiment [10] deals with Hep 3B2. As to the kind of experiment: Inhibition of autophagy in human Hep3B cells assessed as increase in p62 expression measured at 0.1 to 0.5 uM by Western blot analysis. Particulars: dose 0.1-0.5 µM, time 2-6 hrs, TDE = time-dependent effect. The format is functional, cell-based.
Experiment [11] deals with HCA1. As to the kind of experiment: Downregulation of Akt expression in mouse HCA1 cells by Western blot analysis. The format is functional, cell-based.
The subject of experiment [12] is HCA1. As to the kind of experiment: Inhibition of autophagy in mouse HCA1 cells assessed as increase in p62 expression measured after 2 to 6 hrs by Western blot analysis. It is filed as functional, cell-based. Conditions: time 2-6 hrs.
Experiment [13] has as its system Mahlavu. As to the kind of experiment: Inhibition of autophagy in human Mahlavu cells assessed as increase in LC3-II measured at 0.1 to 0.5 uM by Western blot analysis. It is filed as functional, cell-based. Conditions: dose 0.1-0.5 µM, time 2-6 hrs, TDE = time-dependent effect.
In experiment [14] the test system is Hep 3B2. As to the kind of experiment: Inhibition of autophagy in human Hep3B cells assessed as increase in LC3-II measured after 2 to 6 hrs by Western blot analysis. The format is functional, cell-based. Conditions: time 2-6 hrs.
Experiment [15] deals with Mahlavu. As to the kind of experiment: Inhibition of autophagy in human Mahlavu cells assessed as increase in LC3-II measured after 2 to 6 hrs by Western blot analysis. Particulars: time 2-6 hrs. It is filed as functional, cell-based.
The test system of experiment [16] is HCA1. As to the kind of experiment: Induction of apoptosis in mouse HCA1 cells assessed as increase in cleaved caspase 3 measured after 2 hrs by Western blot analysis. It is filed as functional, cell-based.
The test system of experiment [17] is HCA1. Put plainly: Inhibition of autophagy in mouse HCA1 cells assessed as increase in p62 expression measured at 0.1 to 0.5 uM by Western blot analysis. Particulars: dose 0.1-0.5 µM, time 2-6 hrs, TDE = time-dependent effect. It is filed as functional, cell-based.
For experiment [18], the system named is HCA1. As to the kind of experiment: Inhibition of autophagy in mouse HCA1 cells assessed as increase in LC3-II measured after 2 to 6 hrs by Western blot analysis. It is filed as functional, cell-based. Particulars: time 2-6 hrs.
The test system of experiment [19] is Mahlavu. Put plainly: Inhibition of autophagy in human Mahlavu cells assessed as increase in p62 expression measured after 2 to 6 hrs by Western blot analysis. The format is functional, cell-based. Conditions: time 2-6 hrs.
The test system of experiment [20] is HCA1. Put plainly: Induction of apoptosis in mouse HCA1 cells after 16 hrs using annexin V/PI staining assay. It is filed as functional, cell-based.
The subject of experiment [21] is Mahlavu. As to the kind of experiment: Inhibition of autophagy in human Mahlavu cells assessed as increase in p62 expression measured at 0.1 to 0.5 uM by Western blot analysis. The format is functional, cell-based. Conditions: dose 0.1-0.5 µM, time 2-6 hrs, TDE = time-dependent effect.
Experiment [22] relates to Mahlavu. Put plainly: Reduction in p53 expression in human Mahlavu cells by Western blot analysis. The format is functional, cell-based.
For experiment [23], the system named is HCA1. Put plainly: Effect on LC3-I expression in mouse HCA1 cells at 0.5 uM by Western blot analysis. The format is functional, cell-based.
Experiment [24] relates to Hep 3B2. Put plainly: Effect on LC3-I expression in human Hep3B cells at 0.5 uM by Western blot analysis. The format is functional, cell-based.
Experiment [25] relates to Mahlavu. Put plainly: Induction of apoptosis in human Mahlavu cells assessed as increase in cleaved caspase 3 measured after 2 hrs by Western blot analysis. The format is functional, cell-based.
The subject of experiment [26] is Hep 3B2. As to the kind of experiment: Inhibition of autophagy in human Hep3B cells assessed as increase in LC3-II measured at 0.1 to 0.5 uM by Western blot analysis. The format is functional, cell-based. Conditions: dose 0.1-0.5 µM, time 2-6 hrs, TDE = time-dependent effect.
Experiment [27] deals with HCA1. Put plainly: Inhibition of autophagy in mouse HCA1 cells assessed as increase in LC3-II measured at 0.1 to 0.5 uM by Western blot analysis. It is filed as functional, cell-based. Conditions: dose 0.1-0.5 µM, time 2-6 hrs, TDE = time-dependent effect.
In experiment [28] the test system is Hep 3B2. Put plainly: Inhibition of autophagy in human Hep3B cells assessed as increase in p62 expression measured after 2 to 6 hrs by Western blot analysis. It is filed as functional, cell-based. Conditions: time 2-6 hrs.
Experiment [29] deals with Mahlavu. As to the kind of experiment: Reduction in Bcl-xL expression in human Mahlavu cells by Western blot analysis. The format is functional, cell-based.
For experiment [30], the system named is Mahlavu. Put plainly: Downregulation of Akt expression in human Mahlavu cells by Western blot analysis. The format is functional, cell-based.
For experiment [31], the system named is HCA1. Put plainly: Inhibition of autophagosome-lysosome fusion in mouse HCA1 cells assessed as number of LC3 puncta at 1 uM for 2 hrs by immunofluorescence assay. The format is functional, cell-based.
Experiment [32] deals with Mahlavu. Put plainly: Effect on LC3-I expression in human Mahlavu cells at 0.5 uM by Western blot analysis. The format is functional, cell-based.
Experiment [33] concerns HCA1. As to the kind of experiment: Reduction in Bcl-xL expression in mouse HCA1 cells by Western blot analysis. It is filed as functional, cell-based.

The source made the active and inactive calls. The rule behind the calls is not given here.

Sequence of Serine/threonine-protein kinase AKT (Homo sapiens) (P31749 whole entry, looked up): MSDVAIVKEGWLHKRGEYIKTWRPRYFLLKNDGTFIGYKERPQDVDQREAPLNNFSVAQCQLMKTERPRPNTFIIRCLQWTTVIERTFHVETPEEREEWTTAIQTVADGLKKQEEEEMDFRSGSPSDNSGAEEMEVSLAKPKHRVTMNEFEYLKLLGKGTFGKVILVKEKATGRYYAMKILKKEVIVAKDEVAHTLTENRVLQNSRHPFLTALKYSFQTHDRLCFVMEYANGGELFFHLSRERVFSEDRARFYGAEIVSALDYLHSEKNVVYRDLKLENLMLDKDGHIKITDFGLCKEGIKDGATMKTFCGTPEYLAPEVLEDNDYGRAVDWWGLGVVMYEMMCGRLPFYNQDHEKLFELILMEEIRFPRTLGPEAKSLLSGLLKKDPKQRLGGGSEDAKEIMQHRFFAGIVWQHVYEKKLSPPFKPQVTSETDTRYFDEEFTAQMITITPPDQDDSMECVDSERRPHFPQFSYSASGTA
Sequence of Serine/threonine-protein kinase AKT (Homo sapiens) (P31751 whole entry, looked up): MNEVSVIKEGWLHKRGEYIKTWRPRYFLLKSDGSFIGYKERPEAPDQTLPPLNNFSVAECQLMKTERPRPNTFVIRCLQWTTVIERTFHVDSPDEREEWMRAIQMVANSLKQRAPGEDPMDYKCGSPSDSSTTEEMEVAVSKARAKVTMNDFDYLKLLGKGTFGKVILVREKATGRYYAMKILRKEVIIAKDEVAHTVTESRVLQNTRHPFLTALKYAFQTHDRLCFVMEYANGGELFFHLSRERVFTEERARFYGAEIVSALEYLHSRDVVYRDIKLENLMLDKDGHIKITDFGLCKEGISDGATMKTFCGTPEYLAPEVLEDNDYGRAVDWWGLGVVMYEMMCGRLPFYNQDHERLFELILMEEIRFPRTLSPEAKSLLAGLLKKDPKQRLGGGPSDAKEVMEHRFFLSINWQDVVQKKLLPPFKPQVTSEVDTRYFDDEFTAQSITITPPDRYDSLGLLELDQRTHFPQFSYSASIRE
Sequence of Serine/threonine-protein kinase AKT (Homo sapiens) (Q9Y243 whole entry, looked up): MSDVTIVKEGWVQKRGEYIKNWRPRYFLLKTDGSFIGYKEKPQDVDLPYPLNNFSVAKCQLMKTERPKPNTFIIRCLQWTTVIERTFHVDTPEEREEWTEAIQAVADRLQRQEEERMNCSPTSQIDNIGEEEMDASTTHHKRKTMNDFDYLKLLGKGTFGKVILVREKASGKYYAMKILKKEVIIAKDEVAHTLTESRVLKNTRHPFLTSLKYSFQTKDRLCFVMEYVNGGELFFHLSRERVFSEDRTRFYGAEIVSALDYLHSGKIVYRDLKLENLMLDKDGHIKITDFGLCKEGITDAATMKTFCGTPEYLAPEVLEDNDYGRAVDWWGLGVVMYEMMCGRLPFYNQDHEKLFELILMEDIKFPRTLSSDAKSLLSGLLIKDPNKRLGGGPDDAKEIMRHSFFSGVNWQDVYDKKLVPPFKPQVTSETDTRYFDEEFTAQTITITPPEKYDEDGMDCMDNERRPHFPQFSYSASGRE

Regarding `C=CC1CN2CCC1CC2[C@@H](NC(=O)Nc1ccc(C(F)(F)F)cc1)c1ccnc2ccc(OC)cc12` (some centres undefined), the half-maximal inhibitory concentration (IC50) in experiment [1] was 0.6 µM; in [2] it was 1.08 µM; in experiment [3], 0.59 µM; in [4], 0.79 µM; in [5], 0.42 µM; in experiment [6] it was 0.62 µM.
Turning to `C=CC1CN2CCC1C[C@H]2[C@@H](NC(=O)Nc1cc(OC)cc(OC)c1)c1ccnc2ccc(OC)cc12` (some centres undefined), the IC50 in [1] is 3.81 µM; in experiment [2] it was 5.09 µM; in experiment [3], 3.53 µM; in [4], 8.46 µM; in [5] it was 5.87 µM; in [6] it was 2.26 µM.
In the case of `C=CC1CN2CCC1CC2[C@@H](NC(=O)Nc1cc(C(F)(F)F)cc(C(F)(F)F)c1)c1ccnc2ccc(OC)cc12` (some centres undefined), in experiment [7], the inhibition entry is “Active”. Further, the Activity result was “Dose-dependent effect” in experiment [8]; “Tde” in experiment [10]; “Dose-dependent effect” in [12]; “Tde” in [13]; “Dose-dependent effect” in experiment [14]; “Dose-dependent effect” in experiment [15]. The Activity result in [17] is “Tde”; in experiment [18], “Dose-dependent effect”; in experiment [19], “Dose-dependent effect”; in experiment [20], “Dose-dependent effect”; in [21], “Tde”; in experiment [26], “Tde”. Also, the Activity result was “Tde” in experiment [27] and “Dose-dependent effect” in [28]. Further, the outcome in experiment [9], in experiment [11], in [16], in [22], in experiment [23] and in [25] was Active. For the same molecule, the outcome in [29], in [30], in experiment [31] and in experiment [33] was Active. For the same molecule, the IC50 in experiment [1] was found to be 0.13 µM; in experiment [2] it was 0.69 µM; in experiment [3], 0.27 µM; in experiment [4], 0.72 µM; in experiment [5] it was 0.27 µM; in experiment [6], 0.23 µM. For the same molecule, the outcome in experiment [24] and in [32] was inactive.
On to `C=CC1CN2CCC1CC2[C@H](NC(=O)Nc1cc(C(F)(F)F)cc(C(F)(F)F)c1)c1ccnc2ccc(OC)cc12` (some centres undefined), for which the IC50 came to 0.62 µM in experiment [1]; 0.69 µM in experiment [2]; 0.38 µM in [3]; 0.92 µM in [4]; 0.6 µM in [5]; 0.42 µM in [6].
As for `C=CC1CN2CCC1C[C@H]2[C@@H](NC(=O)Nc1cccc(C(F)(F)F)c1)c1ccnc2ccc(OC)cc12` (some centres undefined), the IC50 in experiment [1] is 6.1 µM; in [2], > 10 µM; in experiment [3] it was 1.62 µM; in [4], > 10 µM; in experiment [5], 6.42 µM; in [6], 1.48 µM.
In the case of `CCN(CC)CCCC(C)Nc1ccnc2cc(Cl)ccc12` (centres undefined) [CHLOROQUINE], the IC50 in experiment [1], in experiment [2], in experiment [3], in [4], in [5] and in experiment [6] was > 10 µM each time.
Turning to `C=CC1CN2CCC1CC2[C@@H](NC(=O)Nc1ccc(F)cc1)c1ccnc2ccc(OC)cc12` (some centres undefined), the concentration for half-maximal inhibition (IC50) is 3.65 µM in [1]; 5.88 µM in experiment [2]; 2 µM in experiment [3]; 3.9 µM in experiment [4]; > 10 µM in experiment [5]; 2.81 µM in experiment [6].
Consider `C=CC1CN2CCC1CC2[C@@H](NC(=O)Nc1ccccc1)c1ccnc2ccc(OC)cc12` (some centres undefined), for which the half-maximal inhibitory concentration (IC50) was 4.02 µM in experiment [1]; 8.67 µM in [2]; > 10 µM in experiment [3]; > 10 µM in [4]; > 10 µM in experiment [5]; > 10 µM in [6].
For `C=CC1CN2CCC1C[C@H]2[C@@H](NC(=O)Nc1ccc(OC)cc1)c1ccnc2ccc(OC)cc12` (some centres undefined), the IC50 in experiment [1] was 6.29 µM; in experiment [2] it was 9.55 µM; in experiment [3] it was 9.92 µM; in experiment [4], > 10 µM; in experiment [5] it was > 10 µM; in experiment [6] it was 5.85 µM.
`C=CC1CN2CCC1C[C@H]2[C@@H](NC(=O)Nc1ccccc1C(F)(F)F)c1ccnc2ccc(OC)cc12` (some centres undefined): the IC50 is 6.51 µM in experiment [1]; > 10 µM in [2]; 3.05 µM in [3]; > 10 µM in [4]; > 10 µM in experiment [5]; 5.72 µM in [6].
As for `C=CC1CN2CCC1C[C@H]2[C@@H](NC(=O)Nc1cc(C)cc(C)c1)c1ccnc2ccc(OC)cc12` (some centres undefined), the IC50 was > 10 µM in experiment [1]; 5.16 µM in [2]; 5.12 µM in [3]; > 10 µM in experiment [4]; 7.31 µM in experiment [5]; > 10 µM in [6].
Turning to `C=CC1CN2CCC1CC2[C@@H](NC(=S)Nc1cc(C(F)(F)F)cc(C(F)(F)F)c1)c1ccnc2ccc(OC)cc12` (some centres undefined), the IC50 in [1] came to 0.28 µM; in [2], 0.77 µM; in experiment [3] it was 0.29 µM; in [4], 0.78 µM; in experiment [5], 0.34 µM; in experiment [6], 0.37 µM.
